Patent publication US6211210A, “Diphenyl-1,2,3-thiadiazol-3-oxides, compositions and methods of use” (Merck Frosst Canada & Co., priority 2000, dated 2001)

Experiments:
[1] = system: carrageenan paw edema, rats; assay: Rat paw edema assay (carrageenan); type: in vivo, Male Sprague-Dawley rats; settings: po, 1 hr before carrageenan, paw volume 3 hr later, read-out: ED50 (edema inhibition in rat paw)
Experimental: Male Sprague-Dawley rats (150-200 g) were fasted overnight and were given, po, either vehicle (1% methocel or 5% Tween 80), or a test compound. One hr later, a line was drawn using a permanent marker at the level above the ankle in one hind paw to define the area of the paw to be monitored. The paw volume (V0) was measured using a plethysmometer (Ugo-Basile, Italy) based on the principle of water displacement. The animals were then injected subplantarly with 50 ,l of 1% carrageenan solution in saline (FMC Corp, Maine) into the paw using an insulin syringe with a 25-gauge needle (i.e., 500 μg carrageenan per paw). Three hr later, the paw volume (V3) was measured and the increases in paw volume (V3 -V0) were calculated. The animals were sacrificed by CO2 asphyxiation and the absence or presence of stomach lesions scored. Data were compared with the vehicle-control values and percent inhibition calculated. ED50 values were used for comparison. All treatment groups were coded to eliminate observer bias.

COX-1 = target: T1, COX-1 (Homo sapiens, UniProt P23219); assay: Human whole blood assay: COX-1 (clotting-induced TxB2 production); type: cell-based; settings: clotting-induced TxB2, 1 hour at 37° C.
T1 construct: platelets in whole blood contain a large amount of the COX-1 enzyme; endogenous in cells; host or cells: platelets in fresh human whole blood
T1 sequence (P23219 24-599): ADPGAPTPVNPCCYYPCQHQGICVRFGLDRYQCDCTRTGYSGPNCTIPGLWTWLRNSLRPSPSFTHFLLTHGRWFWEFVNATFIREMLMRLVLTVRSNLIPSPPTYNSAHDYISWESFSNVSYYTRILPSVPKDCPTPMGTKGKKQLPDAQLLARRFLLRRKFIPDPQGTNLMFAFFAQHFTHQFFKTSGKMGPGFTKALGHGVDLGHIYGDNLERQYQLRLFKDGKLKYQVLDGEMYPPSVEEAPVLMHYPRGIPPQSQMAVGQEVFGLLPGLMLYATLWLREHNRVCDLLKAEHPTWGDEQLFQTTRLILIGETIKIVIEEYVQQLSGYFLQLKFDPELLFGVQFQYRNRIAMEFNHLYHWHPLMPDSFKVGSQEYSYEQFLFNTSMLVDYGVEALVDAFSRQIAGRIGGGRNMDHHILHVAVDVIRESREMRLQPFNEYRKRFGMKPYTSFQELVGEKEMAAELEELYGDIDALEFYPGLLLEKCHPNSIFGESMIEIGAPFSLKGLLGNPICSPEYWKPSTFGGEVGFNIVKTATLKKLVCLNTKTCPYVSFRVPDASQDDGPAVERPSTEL
Source text: (§1) As well, platelets in whole blood contain a large amount of the COX-1 enzyme. Immediately following blood clotting, platelets are activated through a thrombin-mediated mechanism. This reaction results in the production of thromboxane B2 (TxB2) via activation of COX-1. Thus, the effect of test compounds on TxB2 levels following blood clotting can be examined and used as an index for COX-1 activity. Therefore, the degree of selectivity by the test compound can be determined by measuring the levels of PGE2 after LPS induction (COX-2) and TxB2 following blood clotting (COX-1) in the same assay.
Fresh blood was collected into vacutainer tubes containing no anticoagulants. […] The tubes were vortexed and incubated at 37° C. for 1 hour to allow blood to clot. Serum was obtained by centrifugation (12,000×g for 5 min). Serum protein is precipitated by mixing a 100 μL aliquot of serum with 400 μL of methanol.
(§2) In the assay, inhibition is determined by measuring the amount of prostaglandin E2 (PGE2) synthesized in the presence of arachidonic acid, COX-1 or COX-2 and a putative inhibitor.

COX-2 = target: T2, COX-2 (Homo sapiens, UniProt P35354); assay: Human whole blood assay: COX-2 (LPS-induced PGE2 production); type: cell-based; settings: LPS-induced PGE2, 24 hours at 37° C.
T2 construct: incubation of human whole blood with LPS which induces COX-2; endogenous in cells
T2 sequence (P35354 18-604): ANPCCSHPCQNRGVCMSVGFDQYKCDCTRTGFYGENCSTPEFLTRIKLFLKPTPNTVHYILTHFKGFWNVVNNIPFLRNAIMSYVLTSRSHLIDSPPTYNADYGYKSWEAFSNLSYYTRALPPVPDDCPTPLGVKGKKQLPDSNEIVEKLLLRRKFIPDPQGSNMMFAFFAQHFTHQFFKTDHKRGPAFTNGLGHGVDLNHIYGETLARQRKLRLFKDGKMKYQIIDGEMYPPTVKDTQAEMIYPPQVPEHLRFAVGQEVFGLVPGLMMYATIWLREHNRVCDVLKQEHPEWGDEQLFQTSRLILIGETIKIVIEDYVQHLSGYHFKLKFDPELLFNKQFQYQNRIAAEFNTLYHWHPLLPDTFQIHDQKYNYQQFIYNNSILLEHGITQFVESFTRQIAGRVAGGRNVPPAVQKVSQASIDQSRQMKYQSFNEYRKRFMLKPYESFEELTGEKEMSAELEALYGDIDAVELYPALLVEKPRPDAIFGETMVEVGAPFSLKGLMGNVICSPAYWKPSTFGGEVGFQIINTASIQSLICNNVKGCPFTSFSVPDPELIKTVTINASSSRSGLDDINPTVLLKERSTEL
Source text: as §1
Fresh blood was collected in heparinized tubes by venipuncture from both male and female volunteers. The subjects had no apparent inflammatory conditions and had not taken any NSAIDs for at least 7 days prior to blood collection. Plasma was immediately obtained from a 2 mL blood aliquot to use as blank (basal levels of PGE2). […] Five hundred μL aliquots of blood were incubated with either […] vehicle (DMSO) or 2 μL of a test compound at final concentrations varying from 10 nM to 30 μM for 24 hours at 37° C. At the end of the incubation, the blood was centrifuged at 12,000×g for 5 minutes to obtain plasma. Protein in the plasma is precipitated by mixing a 100 μL aliquot of plasma with 400 μL of methanol. The supernatant was assayed for PGE2 using a radioimmunoassay kit (Amersham, RPA#530) after conversion of PGE2 to its methyl oximate derivative according to the manufacturer's procedure.
as §2

| IC50 (COX-1) | IC50 (COX-2) | Structure (SMILES) | ED50 [1] |
| --- | --- | --- | --- |
| 38000 nM | 600 nM | CS(=O)(=O)c1ccc(-c2sn[n+]([O-])c2-c2ccccc2)cc1 [Example 1, 4-PHENYL-5-(4-(METHYLSULFONYL)PHENYL-1-2-3--THIADIAZOL-3-OXIDE] | 0.9 mg/kg |
| 18000 nM | 600 nM | CS(=O)(=O)c1ccc(-c2sn[n+]([O-])c2-c2ccc(F)cc2)cc1 [Example 2, 4-(4-FLUOROPHENYL)-5-(4-(METHYLSULFONYL)PHENYL-1-2-3-THIADIAZOL-3-OXIDE] | 0.5 mg/kg |
| 88000 nM | 1300 nM | CS(=O)(=O)c1ccc(-c2sn[n+]([O-])c2-c2cccc(F)c2)cc1 [Example 3, 4-(3-FLUOROPHENYL)-5-(4-(METHYLSULFONYL)PHENYL-1-2-3-THIADIAZOL-3-OXIDE] | – |
| 57000 nM | 500 nM | CS(=O)(=O)c1ccc(-c2sn[n+]([O-])c2-c2ccc(F)c(F)c2)cc1 [Example 4, 4-(3,4-DIFLUOROPHENYL)-5-(4-(METHYLSULFONYL)PHENYL-1-2-3-THIADIAZOL-3-OXIDE] | – |
| – | 500 nM | CS(=O)(=O)c1ccc(-c2sn[n+]([O-])c2-c2cccc(Cl)c2)cc1 [Example 5, 4-(3-CHLOROPHENYL)-5-(4-(METHYLSULFONYL)PHENYL-1-2-3-THIADIAZOL-3-OXIDE] | 1.5 mg/kg |
| – | – | COc1ccc2c(c1)c(CC(=O)O)c(C)n2C(=O)c1ccc(Cl)cc1 [Indomethacin, reference compound] | 2 mg/kg |
